Assay results as given in patent publication US20140094465A1, “Compounds as S-Nitrosoglutathione Reductase Inhibitors” (N30 PHARMACEUTICALS, INC., priority 2011, published 2014).
pIC50: −log10 of the molar value. Like-named read-outs stand apart in the source and are kept apart here.

Experiments:
[1] = target: T1, S-nitrosoglutathione reductase (GSNOR) (Homo sapiens, UniProt P11766); experiment: GSNOR assay (inhibition of GSNOR activity, NADH absorbance at 340 nm); format: biochemical
T1 construct: made in house; host or cells: E. coli
T1 sequence (P11766 whole entry): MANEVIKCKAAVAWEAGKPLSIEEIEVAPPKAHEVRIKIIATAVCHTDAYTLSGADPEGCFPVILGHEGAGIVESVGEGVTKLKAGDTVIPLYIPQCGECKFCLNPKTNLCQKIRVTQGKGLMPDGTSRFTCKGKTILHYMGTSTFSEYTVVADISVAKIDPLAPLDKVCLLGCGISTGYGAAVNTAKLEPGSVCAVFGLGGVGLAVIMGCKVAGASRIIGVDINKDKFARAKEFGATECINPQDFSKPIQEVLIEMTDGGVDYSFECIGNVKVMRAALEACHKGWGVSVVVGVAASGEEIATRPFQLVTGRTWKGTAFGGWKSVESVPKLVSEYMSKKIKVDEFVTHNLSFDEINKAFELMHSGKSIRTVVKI
How it was run: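 Recombinant GSNOR purified from E. coli, tag removed. Final conditions: 100 mM NaPO4 pH 7.4, 0.240 mM GSNO, 0.300 mM NADH, 0.5 μg/mL enzyme, 1% DMSO; NADH loss followed as 340 nm absorbance change over 3 min at 25 °C. Compounds 100–0.003 μM, triplicate; IC50 by curve analysis.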

[2] = Mouse pharmacokinetic (PK) study; format: in vivo; conditions: male, BALB/c, plasma, po, 10 mg/kg, male BALB/c mice, 2 mg/kg IV, 10 mg/kg PO, read-out: oral bioavailability (% F)
Source text: The mouse was used to determine the pharmacokinetics of compounds of the invention. This species is widely used to assess the bioavailability of compounds by administering both oral (PO) and intravenous (IV) test articles. Efficacy of the compounds of the invention was compared by assessing plasma exposure in male BALB/c mice either via IV or PO administration at the times of peak activity.
Compounds of the invention were reconstituted in a phosphate buffered saline (PBS)/10% Solutol (HS 15) clear solution resulting in a concentration of 0.2 mg/mL and administered to mice (2 mg/kg) as a single IV dose. Animals were dosed via the lateral tail vein. Blood samples were collected at designated time points (0.083, 0.25, 0.5, 1, 2, 4, 8, 16, 24 hours) by cardiac puncture under isoflurane anesthesia (up to 1 mL blood per animal). The blood was collected into tubes containing Li-Heparin. The blood samples were kept on ice until centrifugation within approximately 30 minutes of collection. The plasma was transferred into labeled polypropylene tubes and frozen at −70° C. until analyzed by LC/MS/MS.
The compounds of the invention were reconstituted in 40% Propylene Glycol/40% Propylene Carbonate/20% of a 5% Sucrose clear solution resulting in a concentration of 2 mg/mL and administered to mice (10 mg/kg) as a single oral dose via gavage. Blood samples were collected at 0.25, 0.5, 1, 2, 4, 8, 12, 16, 20 and 24 hours post dose by cardiac puncture under isoflurane anesthesia. The blood was collected in tubes containing Li-Heparin. The blood samples were kept on ice until centrifugation within approximately 30 minutes of collection. The plasma was transferred into labeled polypropylene tubes and frozen at −70° C. until analyzed by LC/MS/MS.
Plasma samples at each timepoint were analyzed using a LC-MS/MS with a lower limit of quantification (LLOQ) of 1 ng/mL. Plasma was analyzed to determine the amount of the compound of the invention in each sample and regression curves generated for each compounds of the invention in the relevant matrixes.
WinNonlin analysis was used for calculating PK parameters for both the IV and PO administrations:
PK parameters for IV portion—AUClast; AUCINF; T1/2; Cl; Vss; Cmax; MRT
PK parameters for PO portion—AUClast; AUCINF; T1/2; Cmax; Cl, MRT.
In addition to the above PK parameters, bioavailability (% F) was calculated.

[3] = system: dextran sodium sulfate (DSS)-induced IBD; experiment: Acute prophylactic model of DSS-induced IBD; format: in vivo, mouse; conditions: prophylactic
Source text: (§1) Acute and chronic models of dextran sodium sulfate (DSS)-induced IBD in mice were used to explore efficacy of GSNORi against this disease. Acute and chronic DSS-induced IBD are widely used and well characterized models that induce pathological changes in the colon similar to those observed in the human disease. In these models and in human disease, epithelial cells within the crypts of the colon are disrupted, leading to dysfunction of the epithelial barrier and the ensuing tissue inflammation, edema, and ulceration. GSNORi therapy may benefit IBD by restoring s-nitrosoglutathione (GSNO) levels, and thus prevent or reverse the epithelial barrier dysfunction. Experimental IBD was induced by administration of DSS in the drinking water of male C57Bl/6 mice (N=8 to 10 mice per group) for 6 consecutive days. GSNORi was dosed orally at doses of 0.1 to 10 mg/kg/day for 10 days starting two days prior to and continuing two days post DSS exposure. […] Levels of circulating cytokines involved in inflammatory pathways were also assessed. The effect of GSNORi was compared to vehicle treated controls. […] Naïve mice (N=5) were also assessed as a normal tissue control.

[4] = system: cigarette smoke-induced COPD; experiment: Subchronic (11 day) cigarette smoke exposure COPD model; format: in vivo, mouse; conditions: for effects compared with roflumilast / inhibition of smoke-induced increase in lymphocytes in BAL / inhibition of smoke-induced increase in macrophages in BAL / inhibition of smoke-induced increase in neutrophils in BAL / inhibition of smoke-induced increase in total cells in BAL: subchronic 11 day model; for effects compared with roflumilast: roflumilast 5 mg/kg/day; for inhibition of smoke-induced increase in lymphocytes in BAL / inhibition of smoke-induced increase in macrophages in BAL / inhibition of smoke-induced increase in neutrophils in BAL / inhibition of smoke-induced increase in total cells in BAL: oral 1 mg/kg/day for 11 days
Procedure: Infiltration of inflammatory cells into the bronchoalveolar lavage fluid (BALF) and BALF levels of chemokines involved in inflammation and tissue turnover/repair were measured to assess the influences of GSNOR inhibitors on some of the early events associated with the initiation and progression of COPD. […] In animal models, changes in lung pathology are only evident after extended (several months) duration of exposure to cigarette smoke, thus making chronic models prohibitive as effective screening tools. […] The key roles of inflammation in the initiation and progression of COPD, make these short duration models relevant for initial tests of efficacy of novel therapeutics. Female C57Bl/6 mice (N=10 per group) were exposed to cigarette smoke generated from Marlboro 100 cigarettes without filters. Exposure times were 25 min. on study day 1, 35 min. on study day 2, and 45 min. on study days 3 to 11. GSNOR inhibitors were administered one hour prior to smoke exposure on each day. GSNOR inhibitors were dosed orally at 1 to 10 mg/kg/day for 11 days. […] The effect of GSNOR inhibitors were compared to vehicle treated controls and expressed as percent inhibition of the cigarette smoke induced increases in BALF cell numbers. Roflumilast was used as the positive control for the study and was dosed at 5 mg/kg/day. A group of naïve mice (N=10) was exposed to air and dosed with vehicle as a negative control for the study.

[5] = system: dextran sodium sulfate (DSS)-induced IBD; experiment: Chronic treatment model of DSS-induced IBD; format: in vivo, mouse; conditions: oral 10 mg/kg/day for up to 14 days, treatment regimen
Source text: as §1, with “mice (N=10” for “mice (N=8”, “to 12” for “to 10”, “of” for “of 0.1 to”, “for 14” for “for 10”, “starting one day after cessation of” for “starting two days prior to and continuing two days post”

[6] = system: ovalbumin (OVA)-induced asthma; experiment: Mouse model of ovalbumin (OVA)-induced asthma (Penh, eosinophil infiltrate in BALF); format: in vivo; conditions: three oral doses of 10 mg/kg at 48 h, 24 h, and 1 h prior to assessment
Procedure: A mouse model of ovalbumin (OVA)-induced asthma was used to screen GSNOR inhibitors for efficacy against methacholine (MCh)-induced bronchoconstriction/airway hyper-responsiveness. This is a widely used and well characterized model that presents with an acute, allergic asthma phenotype with similarities to human asthma. Efficacy of GSNOR inhibitors was assessed using a protocol in which GSNOR inhibitors were administered after OVA sensitization and airway challenge, and prior to challenge with MCh. Bronchoconstriction in response to challenge with increasing doses of MCh was assessed using whole body plethysmography (Penh; Buxco). The amount of eosinophil infiltrate into the bronchoaveolar lavage fluid (BALF) was also determined as a measure of lung inflammation. The effects of GSNOR inhibitors were compared to vehicles and to Combivent (inhaled; IH) as the positive control.
OVA (500 μg/ml) in PBS was mixed with equal volumes of 10% (w/v) aluminum potassium sulfate in distilled water and incubated for 60 min. at room temperature after adjustment to pH 6.5 using 10 N NaOH. After centrifugation at 750×g for 5 min, the OVA/alum pellet was resuspended to the original volume in distilled water. Mice received an intraperitoneal (IP) injection of 100 μg OVA (0.2 mL of 500 μg/mL in normal saline) complexed with alum on day 0. Mice were anesthetized by IP injection of a 0.2-mL mixture of ketamine and xylazine (0.44 and 6.3 mg/mL, respectively) in normal saline and were placed on a board in the supine position. Two hundred fifty micrograms (100 μl of a 2.5 mg/ml) of OVA (on day 8) and 125 μg (50 μl of 2.5 mg/ml) OVA (on days 15, 18, and 21) were placed on the back of the tongue of each animal.
In vivo airway responsiveness to methacholine was measured 24 h after the last OVA challenge in conscious, freely moving, spontaneously breathing mice with whole body plethysmography using a Buxco chamber (Wilmington, N.C.). Mice were challenged with aerosolized saline or increasing doses of methacholine (5, 20, and 50 mg/mL) generated by an ultrasonic nebulizer for 2 min. The degree of bronchoconstriction was expressed as enhanced pause (Penh), a calculated dimensionless value, which correlates with the measurement of airway resistance, impedance, and intrapleural pressure in the same mouse. Penh readings were taken and averaged for 4 min. after each nebulization challenge. Penh is calculated as follows: Penh=[(Te/Tr−1)×(PEF/PIF)], where Te is expiration time, Tr is relaxation time, PEF is peak expiratory flow, and PIF is peak inspiratory flow×0.67 coefficient. The time for the box pressure to change from a maximum to a user-defined percentage of the maximum represents the relaxation time. The Tr measurement begins at the maximum box pressure and ends at 40%.
After measurement of airway hyper-reactivity, the mice were exsanguinated by cardiac puncture, and then BALF was collected from either both lungs or from the right lung after tying off the left lung at the mainstem bronchus. Total BALF cells were counted from a 0.05 mL aliquot, and the remaining fluid was centrifuged at 200×g for 10 min at 4° C. Cell pellets were resuspended in saline containing 10% BSA with smears made on glass slides. Eosinophils were stained for 5 min. with 0.05% aqueous eosin and 5% acetone in distilled water, rinsed with distilled water, and counterstained with 0.07% methylene blue. Alternatively, eosinophils and other leukocytes were stained with DiffQuik.
GSNOR inhibitors were reconstituted in phosphate buffered saline (PBS), pH 7.4, or 0.5% w/v carboxy methylcellulose at concentrations ranging from 0.00005 to 3 mg/mL. GSNOR inhibitors were administered to mice (10 mL/kg) as a single dose or multiple dose either intravenously (IV) or orally via gavage. Dosing was performed from 30 min. to 72 h prior to MCh challenge. Effects of GSNOR inhibitors were compared to vehicle dosed in the same manner.
Combivent was used as the positive control in all studies. […]

[7] = GSNOR inhibitor activity, Tables 1-6, read-out: IC50 range

Oc1ccc2nc(-c3ccc(-c4nnn[nH]4)cc3)ccc2c1 [Compound I-4]
pIC50 [1, 7]: > 7.00
bioavailability [2]: > 9%

O=C(O)c1ccc(-c2ccc3cc(O)ccc3n2)c(Cl)c1 [Compound I-8, 3-chloro-4-(6-hydroxyquinolin-2-yl)benzoic acid]
pIC50 [1, 7]: > 7.00
decrease of percent of mice with severe colon injury scores via endoscopy ([3]; oral 10 mg/kg/day for 10 days): 44 % of vehicle control
decrease of percent of mice with severe colon injury scores via histopathology ([3]; oral 10 mg/kg/day for 10 days): 26 % of vehicle control
dose response of effect ([4]; subchronic 11 day model, 1, 5, or 10 mg/kg/day): no dose response of effect
effects compared with roflumilast [4]: comparable to those of roflumilast

O=C(O)c1ccc(-c2ccc3cc(O)ccc3n2)c(F)c1 [Compound I-13]
pIC50 [1, 7]: > 7.00
decrease of percent of mice with severe colon injury scores via endoscopy [5]: 52 % of vehicle control
decrease of percent of mice with severe colon injury scores via histopathology [5]: 53 % of vehicle control
inhibition of smoke-induced increase in lymphocytes in BAL [4]: 60%
inhibition of smoke-induced increase in macrophages in BAL [4]: 53%
inhibition of smoke-induced increase in neutrophils in BAL [4]: 67%
inhibition of smoke-induced increase in total cells in BAL [4]: 56%
effects compared with roflumilast [4]: comparable to those of roflumilast

O=C(O)c1ccc(-c2nc3ccc(O)cc3cc2Cl)cc1 [Compound I-19]
pIC50 [1, 7]: > 7.00
bioavailability [2]: > 9%

Cc1cc(C(=O)O)ccc1-c1ccc2cc(O)ccc2n1 [Compound I-27]
pIC50 [1, 7]: > 7.00
decrease of eosinophil infiltration in BAL [6]: 23 % of vehicle control
inhibition of smoke-induced increase in lymphocytes in BAL [4]: 46%
inhibition of smoke-induced increase in macrophages in BAL [4]: 41%
inhibition of smoke-induced increase in neutrophils in BAL [4]: 64%
inhibition of smoke-induced increase in total cells in BAL [4]: 44%
effects compared with roflumilast [4]: comparable to those of roflumilast

O=C(O)c1ccc(-c2nc3ccc(O)cc3cc2Cl)c(F)c1 [Compound I-28]
pIC50 [1, 7]: > 7.00
bioavailability [2]: > 9%

O=C(O)c1ccc(-c2ccc3cc(O)ccc3c2)c(Cl)c1 [III-1]
pIC50 [1, 7]: > 7.00
decrease of percent of mice with severe colon injury scores via endoscopy ([3]; oral 1 mg/kg/day for 10 days): 17 % of vehicle control
decrease of percent of mice with severe colon injury scores via histopathology ([3]; oral 1 mg/kg/day for 10 days): 21 % of vehicle control
decrease of percent of mice with severe colon injury scores via endoscopy [5]: 50 % of vehicle control
decrease of percent of mice with severe colon injury scores via histopathology [5]: 17 % of vehicle control
effects compared with roflumilast [4]: comparable to those of roflumilast

CC1Cc2cc(O)ccc2C(=O)N1[C@H]1CC[C@H](C(=O)O)CC1 (stereo partly drawn) [VIII-17, (trans)-4-(6-hydroxy-3-methyl-1-oxo-3,4-dihydroisoquinolin-2(1H)-yl)cyclohexanecarboxylic acid]
pIC50 ([1]; Table 8, GSNOR inhibition, IC50 range class a/b/c, read-out: IC50): 5.00 to 6.00
